In PMC11033320, “Activation of p53 signaling and regression of breast and prostate carcinoma cells by spirooxindole-benzimidazole small molecules” (Frontiers in Pharmacology, 2024):

Assays:
ACHN = test: NCI anticancer screening, Renal Cancer ACHN; assay type: cell-based; conditions: Homo sapiens, read-out: % Growth Inhibition (GI %)
From the text: (§1) The compound has been processed according to standard method NCI-60 Human Tumor Cell Lines Screen for organic compound at development therapeutic program (DTP). Requests for access to this national resource can be submitted online at: […]

[1] = MTT cytotoxicity to normal human lung fibroblast Wi-38 cell line; assay type: cell-based; conditions: Wi-38 normal lung fibroblast cells, mean ± SEM, read-out: percentage of Wi-38 viability
Method: Normal human lung fibroblast Wi-38 cell line was used to detect cytotoxicity of the studied compounds (Table S8). Wi-38 cell line was cultured in DMEM medium-contained 10% fetal bovine serum (FBS), seeded as 5x10^3 cells per well in 96-well cell culture plate and incubated at 37 °C in 5% CO2 incubator. After 24 h for cell attachment, serial concentrations of the synthetic compounds were incubated with Wi-38 cells for 72 h. Cell viability was assayed by MTT method (Mosmann, 1983). Twenty microliters of 5 mg/ml MTT (Sigma, USA) was added to each well and the plate was incubated at 37 °C for 3 h. Then MTT solution was removed, 100 µl DMSO was added and the absorbance of each well was measured with a microplate reader (BMG LabTech, Germany) at 570 nm.

UO-31 = test: NCI anticancer screening, Renal Cancer UO-31; assay type: cell-based; conditions: Homo sapiens; UO-31, 10 μM; read-out: % Growth Inhibition (GI %)
From the text: as §1

SF-539 = test: NCI anticancer screening, CNS Cancer SF-539; assay type: cell-based; conditions: Homo sapiens; SF-539, 10 μM; read-out: % Growth Inhibition (GI %)
From the text: as §1

HT29 = test: NCI anticancer screening, Colon Cancer HT29; assay type: cell-based; conditions: Homo sapiens, HT-29; HT29, 10 μM; read-out: % Growth Inhibition (GI %)
From the text: as §1

[2] = target: T1, Mdm2 (residues 1–118 T47W) (Homo sapiens, UniProt Q00987, T47W); test: MDM2 binding by microscale thermophoresis (MST)
T1 construct: Mdm2 (residues 1–118 T47W; 500 nM)
T1 sequence (Q00987 1-118 T47W): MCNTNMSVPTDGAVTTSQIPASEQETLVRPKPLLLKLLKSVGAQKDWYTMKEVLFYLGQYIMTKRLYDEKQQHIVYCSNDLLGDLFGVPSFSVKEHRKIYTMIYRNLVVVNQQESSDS
Method: MST is a complementary biophysical assay to assess the binding of a small molecule to its receptor. […] Experiments were performed in 50 mM phosphate buffer at pH 7.4 containing 150 mM NaCl, 5 mM DTT, and 5% DMSO. […] Kd values and uncertainties were calculated using the MO Affinity Analysis software.

IGROV1 = test: NCI anticancer screening, Ovarian Cancer IGROV1; assay type: cell-based; conditions: Homo sapiens, IGROV-1; IGROV1, 10 μM; read-out: % Growth Inhibition (GI %)
From the text: as §1

OVCAR-8 = test: NCI anticancer screening, Ovarian Cancer OVCAR-8; assay type: cell-based; conditions: Homo sapiens; OVCAR-8, 10 μM; read-out: % Growth Inhibition (GI %)
From the text: as §1

RXF 393 = test: NCI anticancer screening, Renal Cancer RXF 393; assay type: cell-based; conditions: Homo sapiens; RXF 393, 10 μM; read-out: % Growth Inhibition (GI %)
From the text: as §1

SK-MEL-5 = test: NCI anticancer screening, Melanoma SK-MEL-5; assay type: cell-based; conditions: Homo sapiens; SK-MEL-5, 10 μM; read-out: % Growth Inhibition (GI %)
From the text: as §1

MDA-MB-435 = test: NCI anticancer screening, Melanoma MDA-MB-435; assay type: cell-based; conditions: Homo sapiens; MDA-MB-435, 10 μM; read-out: % Growth Inhibition (GI %)
From the text: as §1

RPMI-8226 = test: NCI anticancer screening, Leukemia RPMI-8226; assay type: cell-based; conditions: Homo sapiens; RPMI-8226, 10 μM; read-out: % Growth Inhibition (GI %)
From the text: as §1

DU-145 = test: NCI anticancer screening, DU-145; assay type: cell-based; conditions: Homo sapiens; DU-145, 10 μM; read-out: % Growth Inhibition (GI %)
From the text: as §1

NCI-H23 = test: NCI anticancer screening, Non-Small Cell Lung Cancer NCI-H23; assay type: cell-based; conditions: Homo sapiens; NCI-H23, 10 μM; read-out: % Growth Inhibition (GI %)
From the text: as §1

HCT-116 = test: NCI anticancer screening, Colon Cancer HCT-116; assay type: cell-based; conditions: Homo sapiens; HCT-116, 10 μM; read-out: % Growth Inhibition (GI %)
From the text: as §1

OVCAR-4 = test: NCI anticancer screening, Ovarian Cancer OVCAR-4; assay type: cell-based; conditions: Homo sapiens; OVCAR-4, 10 μM; read-out: % Growth Inhibition (GI %)
From the text: as §1

NCI/ADR-RES = test: NCI anticancer screening, Ovarian Cancer NCI/ADR-RES; assay type: cell-based; conditions: Homo sapiens, read-out: % Growth Inhibition (GI %)
From the text: as §1

COLO 205 = test: NCI anticancer screening, Colon Cancer COLO 205; assay type: cell-based; conditions: Homo sapiens; COLO 205, 10 μM; read-out: % Growth Inhibition (GI %)
From the text: as §1

SK-OV-3 = test: NCI anticancer screening, Ovarian Cancer SK-OV-3; assay type: cell-based; conditions: Homo sapiens; SK-OV-3, 10 μM; read-out: % Growth Inhibition (GI %)
From the text: as §1

NCI-H226 = test: NCI anticancer screening, Non-Small Cell Lung Cancer NCI-H226; assay type: cell-based; conditions: Homo sapiens; NCI-H226, 10 μM; read-out: % Growth Inhibition (GI %)
From the text: as §1

MALME-3M = test: NCI anticancer screening, Melanoma MALME-3M; assay type: cell-based; conditions: Homo sapiens, read-out: % Growth Inhibition (GI %)
From the text: as §1

LOX IMVI = test: NCI anticancer screening, Melanoma LOX IMVI; assay type: cell-based; conditions: Homo sapiens, read-out: % Growth Inhibition (GI %)
From the text: as §1

HS 578T = test: NCI anticancer screening, Breast Cancer HS 578T; assay type: cell-based; conditions: Homo sapiens, read-out: % Growth Inhibition (GI %)
From the text: as §1

UACC-257 = test: NCI anticancer screening, Melanoma UACC-257; assay type: cell-based; conditions: Homo sapiens; UACC-257, 10 μM; read-out: % Growth Inhibition (GI %)
From the text: as §1

[3] = system: leukemia cells (CCRF-CEM; HL-60 (TB); K-562; MOLT-4; RPMI-8226, SR); test: NCI anticancer screening, leukemia subpanel; assay type: cell-based, human; conditions: smaller GI% than the other compounds
From the text: as §1

Structure (SMILES)	inhibition at 10 µM (ACHN)	viability at 72 h, 5 µM [1]	inhibition at 10 µM (UO-31)	inhibition at 10 µM (SF-539)	inhibition at 10 µM (HT29)	inhibition at 10 µM (IGROV1)	inhibition at 10 µM (OVCAR-8)	inhibition at 10 µM (RXF 393)	inhibition at 10 µM (SK-MEL-5)	inhibition at 10 µM (MDA-MB-435)	inhibition at 10 µM (RPMI-8226)	inhibition at 10 µM (DU-145)	inhibition at 10 µM (NCI-H23)	inhibition at 10 µM (HCT-116)	inhibition at 10 µM (OVCAR-4)	inhibition at 10 µM (NCI/ADR-RES)	inhibition at 10 µM (NCI-H226)	inhibition at 10 µM (MALME-3M)	inhibition at 10 µM (LOX IMVI)	inhibition at 10 µM (HS 578T)	also measured
O=C(c1nc2ccccc2[nH]1)[C@H]1[C@H](c2ccccc2)C2CSCN2[C@]12C(=O)Nc1ccccc12 (mixture of isomers) [Compound 6a, (3S,6′R)-6'-(1H-benzo [d]imidazole-2-carbonyl)-7′-phenyl-3′,6′,7′,7a′-tetrahydro-1′H-spiro [indoline-3.5′-pyrrolo [1,2-c]thiazol]-2-one]	99.5%	> 81%	77.2%	95.1%	98.8%	91.4%	96.1%	101%	92.7%	103%	111%	115%	104%	106%	108%	105%	95.3%	101%	98.7%	103%	Kd [2]: 87.7 µM; inhibition at 10 µM (COLO 205): 99.9%; inhibition at 10 µM (SK-OV-3): 99.1%; inhibition at 10 µM (UACC-257): 97.3%
Cc1ccc([C@@H]2C3CSCN3[C@]3(C(=O)Nc4ccccc43)[C@H]2C(=O)c2nc3ccccc3[nH]2)cc1 (mixture of isomers) [Compound 6d, (3S,6′R)-6'-(1H-Benzo [d]imidazole-2-carbonyl)-7'-(p-tolyl)-3′,6′,7′,7a′-tetrahydro-1′H-spiro [indoline-3.5′-pyrrolo [1,2-c]thiazol]-2-one]	88.9%	> 81%	54.3%	81.9%	69.2%	75%	95.9%	57.1%	83.3%	70.6%	80.3%	106%	91.2%	74.5%	62.4%	86.2%	73.9%	85.3%	82%	78.6%	Kd [2]: 17.4 µM; inhibition at 10 µM (COLO 205): 81.9%; inhibition at 10 µM (SK-OV-3): 94.2%; inhibition at 10 µM (UACC-257): 80.6%
O=C(c1nc2ccccc2[nH]1)[C@H]1[C@H](c2ccc(Cl)cc2)C2CSCN2[C@]12C(=O)Nc1ccccc12 (stereo partly drawn) [Compound 6b, (3S,6′R)-6'-(1H-Benzo [d]imidazole-2-carbonyl)-7'-(4-chlorophenyl)-3′,6′,7′,7a′-tetrahydro-1′H-spiro [indoline-3.5′-pyrrolo [1,2-c]thiazol]-2-one]	78.2%	49.6 ± 1.19%	49%	84.1%	80.9%	68.9%	89.5%	71.1%	91.6%	79.9%	63.2%	97.4%	81.4%	60.5%	69.5%	84.7%	74%	89.7%	76.6%	72.1%	GI% for MOLT-4, RPMI-8226, and SR cancer cells [3]: 75%; inhibition at 10 µM (UACC-257): 95.2%
O=C(c1nc2ccccc2[nH]1)[C@H]1[C@H](c2ccc(Cl)cc2Cl)C2CSCN2[C@]12C(=O)Nc1ccccc12 (stereo partly drawn) [Compound 6g, (3S,6′R)-6'-(1H-Benzo [d]imidazole-2-carbonyl)-7'-(2,4-dichlorophenyl)-3′,6′,7′,7a′-tetrahydro-1′H-spiro [indoline-3.5′-pyrrolo [1,2-c]thiazol]-2-one]	63.7%	40 ± 1.1%	39.7%	76.4%	61.9%	54.8%	77%	40.7%	81.9%	56%	42.5%	86.9%	85.4%	56.4%	57.6%	68.4%	61.8%	86.2%	67.2%	65.1%	GI% for MOLT-4, RPMI-8226, and SR cancer cells [3]: 75%; inhibition at 10 µM (UACC-257): 74.4%
O=C(c1nc2ccccc2[nH]1)[C@H]1[C@H](c2cccc(O)c2)C2CSCN2[C@]12C(=O)Nc1ccccc12 (stereo partly drawn) [Compound 6h, (3S,6′R)-6'-(1H-Benzo [d]imidazole-2-carbonyl)-7'-(3-hydroxyphenyl)-3′,6′,7′,7a′-tetrahydro-1′H-spiro [indoline-3.5′-pyrrolo [1,2-c]thiazol]-2-one]	92.8%	51 ± 1.83%	60.6%	90%	104%	87.9%	97%	104%	93.7%	93.5%	82.4%	105%	99.3%	89%	82.1%	97.1%	99.1%	96.8%	84.3%	80.4%	Kd [2]: 6.68 µM; inhibition at 10 µM (UACC-257): 91.9%
O=C(c1nc2ccccc2[nH]1)[C@H]1[C@H](c2ccco2)C2CSCN2[C@]12C(=O)Nc1ccccc12 (stereo partly drawn) [Compound 6n, (3S,6′R)-6'-(1H-Benzo [d]imidazole-2-carbonyl)-7'-(furan-2-yl)-3′,6′,7′,7a′-tetrahydro-1′H-spiro [indoline-3.5′-pyrrolo [1,2-c]thiazol]-2-one]	93.7%	46.2 ± 1.47%	61.7%	96.4%	115%	92.4%	101%	104%	98.2%	105%	101%	114%	92.9%	98.6%	99.2%	101%	92.2%	102%	91.7%	91.3%	inhibition at 10 µM (UACC-257): 116%
